The values below come from patent US10023591B2, “Heterocyclic derivatives and use thereof” (C&C RESEARCH LABORATORIES, priority 2014, dated 2018).

One assay deals with STAT3. As to the kind of experiment: STAT3 reporter gene assay (luciferase), LNCaP stable cell line pSTAT3-TA-luc, IL-6 stimulation. Conditions: Homo sapiens. It is filed as cell-based, human. The procedure, abridged: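 LNCaP cells stably carrying pSTAT3-TA-luc were plated 24 h in 3% DCC-FBS medium, then given compound followed by IL-6 (10 ng/mL final) for 24 h at 37 °C. Luciferase was read from lysates, with CellTiter-Glo viability on a duplicate plate. Stimulated 0.1% DMSO wells served as uninhibited control.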

Assay [1] has as its system DU-145 prostate cancer cell line. As to the kind of experiment: Cell growth inhibition assay, DU-145 (CellTiter-Glo). It is filed as cell-based. The settings on record: Homo sapiens; DU-145, 3,000 cells/well, 96 hours. The procedure, abridged:
(§1)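 Cells seeded at 3,000 (DU-145), 5,000 (NCI-N87) or 10,000 (LNCaP, MDA-MB-468) per well, LNCaP in medium with 10 ng/mL IL-6. Serially diluted compound for 96 h at 37 °C (MDA-MB-468 in air, others 5% CO2); viability by CellTiter-Glo luminescence versus 0.1% DMSO wells.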

A further assay has as its system STAT1. Put plainly: STAT1 reporter gene assay (luciferase), U2OS stable cell line pGL4-STAT1-TA-luc, IFN-γ stimulation. It counts as cell-based, human. Conditions: Homo sapiens, IFN-γ 50 ng/mL, 8 hours, read-out: IC50 (μM) pSTAT1. The procedure, abridged:
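U2OS cells stably carrying a STAT1-driven luciferase reporter were treated with serially diluted compounds plus IFN-γ (50 ng/mL final) for 8 h at 37 °C in 10% FBS medium. Luciferase read after lysis; parallel plate assessed for cytotoxicity by CellTiter-Glo.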

Assay [2] relates to LNCaP prostate cancer cell line. Put plainly: Cell growth inhibition assay, LNCaP (CellTiter-Glo). It counts as cell-based. The settings on record: Homo sapiens; LNCaP, 10,000 cells/well, medium with 10 ng/mL IL-6, 96 hours. The method, boiled down: as §1
Assay [3] relates to MDA-MB-468 breast cancer cell line. Put plainly: Cell growth inhibition assay, MDA-MB-468 (CellTiter-Glo). It counts as cell-based. The settings on record: Homo sapiens, MDA-MB-468, 96 hours. Here is the method: The inhibitory effects of the compounds of the present invention against the growth of cancer cells were evaluated as shown below. The cancer cell lines including prostate cancer cell lines (LNCaP, DU-145), stomach cancer cell line (NCI-N87), and breast cancer cell lines (MDA-MB-468) were cultured under the protocol provided by each supplier. A medium supplemented with 10 ng/mL of IL-6 was used for LNCaP, a prostate cancer cell line, when treated with a drug. Each type of cells to be used in experiments was sub-cultured in a 96-well plate by counting the exact number of cells using Tali™ Image-based Cytometer (Life Technologies). In a 96-well plate, DU-145 was employed with 3,000 cells/well; NCI-N87 was employed with 5,000 cells/well; and LNCaP and MDA-MB-468 were employed with 10,000 cells/well. The cells were treated with the compounds listed in Examples which were diluted in various concentrations. Upon completion of the compounds treatment, LNCaP, DU-145, NCI-N87 cells were cultured at 37° C. under 5% CO2 for 96 hours, and MDA-MB-468 cells were cultured at 37° C. in air for 96 hours. Subsequently, the cells were observed under microscope and drug precipitation and particular findings were investigated and recorded. And then, the 96-well plate was placed at room temperature for 30 minutes, added with 20 pt/well of CellTiter-Glo solution (Cat No. G7573, Promega) and shaken for 10 minutes, followed by being subjected to the measurement using PHERAstar™ microplate reader (BMG LABTECH) according to the supplier's general luminometer protocol. Wells where only culture liquid added without cell plating were used as a negative control, whereas wells where culture liquid containing 0.1% DMSO instead of the compounds listed in Examples were used as a positive control.

Assay [4] relates to NCI-N87 stomach cancer cell line. Put plainly: Cell growth inhibition assay, NCI-N87 (CellTiter-Glo). It counts as cell-based. Conditions: Homo sapiens; NCI-N87, 5,000 cells/well, 96 hours. The method, boiled down: as §1

Consider `CC(C)(c1ccc2sc(C(=O)Nc3cc(Cl)nc(Oc4ccc(Cl)cc4)c3)cc2c1)S(C)(=O)=O` [Example 64, N-(2-chloro-6-(4-chlorophenoxy)pyridin-4-yl)-5-(2-(methylsulfonyl)propan-2-yl)benzo[b]thiophene-2-carboxamide], for which the IC50 was 0.021 µM with STAT3; 0.0057 µM in assay [1]; over 50 µM in the assay with STAT1; 0.013 µM in assay [2]; 0.0065 µM in assay [3]; 0.034 µM in assay [4].

For `Cc1onc(Oc2cc(NC(=O)c3cc4cc(C(C)(C)S(C)(=O)=O)ccc4s3)cc(Cl)n2)c1C` [Example 116, N-(2-chloro-6-((4,5-dimethylisoxazol-3-yl)oxy)pyridin-4-yl)-5-(2-(methylsulfonyl)propan-2-yl)benzo[b]thiophene-2-carboxamide], the IC50 with STAT3 was 0.2 µM; with STAT1, over 50 µM; in assay [3], 0.062 µM; in assay [4], 0.91 µM.

On to `CC(C)(c1ccc2sc(C(=O)Nc3cc(Cl)nc(OCc4ccc(Cl)cc4)c3)cc2c1)S(C)(=O)=O` [Example 86, N-(2-chloro-6-((4-chlorobenzyl)oxy)pyridin-4-yl)-5-(2-(methylsulfonyl)propan-2-yl)benzo[b]thiophene-2-carboxamide], for which the IC50 in the assay with STAT3 is 0.089 µM; with STAT1, over 50 µM; in assay [3], 0.024 µM; in assay [4], 0.15 µM.

For the compound `CC(C)(c1ccc2sc(C(=O)Nc3cc(Cl)nc(Oc4ccc(Cl)c(F)c4)c3)cc2c1)S(C)(=O)=O` [Example 72, N-(2-chloro-6-(4-chloro-3-fluorophenoxy)pyridin-4-yl)-5-(2-(methylsulfonyl)propan-2-yl)benzo[b]thiophene-2-carboxamide], the IC50 in the assay on STAT3 was 0.01 µM; in the assay with STAT1, over 50 µM; in assay [3], 0.004 µM; in assay [4], 0.021 µM.

As for `CC(C)(c1ccc2sc(C(=O)Nc3cc(Cl)nc(Oc4cccc(Cl)c4)c3)cc2c1)S(C)(=O)=O` [Example 80, N-(2-chloro-6-(3-chlorophenoxy)pyridin-4-yl)-5-(2-(methylsulfonyl)propan-2-yl)benzo[b]thiophene-2-carboxamide], the IC50 in the assay with STAT3 was 0.04 µM; with STAT1 it was over 50 µM; in assay [3], 0.0084 µM; in assay [4] it was 0.069 µM.

As to `CC(C)(c1ccc2sc(C(=O)Nc3cc(Cl)nc(Oc4ccc(Cl)c(Cl)c4)c3)cc2c1)S(C)(=O)=O` [Example 82, N-(2-chloro-6-(3,4-dichlorophenoxy)pyridin-4-yl)-5-(2-(methylsulfonyl)propan-2-yl)benzo[b]thiophene-2-carboxamide], the IC50 in the assay with STAT3 is 0.0058 µM; in the assay with STAT1, over 50 µM; in assay [3], 0.0041 µM; in assay [4], 0.035 µM.

For `Cc1sccc1Oc1cc(NC(=O)c2cc3cc(C(C)(C)S(C)(=O)=O)ccc3s2)cc(Cl)n1` [Example 115, N-(2-chloro-6-((2-methylthiophen-3-yl)oxy)pyridin-4-yl)-5-(2-(methylsulfonyl)propan-2-yl)benzo[b]thiophene-2-carboxamide], the IC50 in the assay on STAT3 is 0.019 µM; in the assay on STAT1, over 50 µM; in assay [3] it was 0.021 µM; in assay [4], 0.14 µM.
